Results from US20160115540A1, “PRODRUGS AND DRUGS” (Biogen MA Inc., priority 2013, published 2016).
Where a name gives a salt, the structure may show the parent alone.

Tested on: jejunum
Assay: Transcriptional profiling on Affymetrix GeneChips, single dose, naïve mice: jejunum
Format: in vivo, C57BL/6 mice
Procedure: Treated mice were sacrificed at 2, 7, or 12 hours. Tissues (liver, spleen, kidney, jejunum, cortex, hippocampus, striatum and whole blood) were collected and analyzed by transcriptional profiling on mouse Affymetrix GeneChips.
Tissues (liver, spleen, kidney, jejunum, cortex, hippocampus, striatum and whole blood) were collected and analyzed by transcriptional profiling on mouse Affymetrix GeneChips.
Animals were exposed to CO2 and whole blood collected via cardiac puncture. Two 100 μl aliquots of whole blood were collected in 1.5 mL microcentrifuge tubes and snap frozen in liquid nitrogen. Peripheral (liver, spleen, kidney and jejunum) and CNS brain (cerebellum, hippocampus, striatum and cortex) tissues were harvested and snap frozen in liquid nitrogen, with special care taken to collect tissues of similar size and from the same location. All samples were stored at −80° C. until RNA extraction was conducted.
For RNA preparation, frozen tissues were placed in 2 mL RNAse-free 96-well blocks with 1.5 mL QIAzol Lysis Reagent (QIAgen) and a 3.2 mm stainless steel bead (BioSpec Products, Bartlesville, Okla.). Tissues were disrupted for four cycles of 45 seconds in a Mini-Beadbeater (Biospec Products). RNA was extracted in chloroform and the aqueous phase was mixed with an equal volume of 70% ethanol. Extracted RNA was applied to RNeasy 96 plates and purified by the spin method according to the manufacturer's protocol (RNeasy 96 Universal Tissue Protocol, QIAgen, Hilden Germany).
Automated sample amplifications and biotin labelings were carried out using the NuGEN Ovation RNA Amplification system V2 (Cat #3100), Ovation WB reagent (Cat #1300) and Encore Biotin module (Cat #4200) (NuGEN Technologies, Inc, San Carlos, Calif.) according to manufacturer's recommendations using an Arrayplex automated liquid handler (Beckman Coulter, Indianapolis, Ind.). Two micrograms of biotin labeled sscDNA probe were hybridized to Affymetrix GeneChip Affymetrix HT_MG-430_PM plate arrays with modified conditions as described in Allaire et al. Washing and staining of the hybridized arrays were completed as described in the GeneChip Expression analysis technical manual for HT plate arrays using the Genechip® Array Station (Affymetrix, Santa Clara, Calif.) with modifications as described in Allaire et al. The processed GeneChip® plate arrays were scanned using GeneTitan scanner (Affymetrix, Santa Clara, Calif.).
Affymetrix scans were subject to quality control (QC) measures. These tests included a visual inspection of the distribution of raw signal intensities and an assessment of RNA degradation, relative log expression (RLE), and normalized unsealed standard error (NUSE). All sample scans that passed these QC metrics were included in the analysis.
All CEL files were subjected to GC-content-based Robust Multi-array Average (GCRMA) normalization (version 2.20.0) (Irizarry R A, et al. Nucleic Acids Res 2003; 31:e15; Li C, et al. Genome Biol 2001; 2:[…]0032). Expression levels were log (base 2) transformed.
All calculations and analyses were carried out using R (version 2.11.1) and Bioconductor computational tools (Gentleman R. Springer Science+Business Media 2005).

[1] = 100DMF-vs-Veh or 100MMF-vs-Veh, 12 h

## COC(=O)/C=C/C(=O)OC [DMF, dimethyl fumarate]
100DMF-vs-100MMF, 2 h
  FC Lrp8 (1440882_PM_at): −1.69
100DMF-vs-100MMF, 7 h
  FC Alb (1425260_PM_at): 9.97
  FC G6pc (1417880_PM_at): −2.45
[1]
  FC Abcc3 (1428988_PM_at): 2.02
  FC Acsm5 (1437662_PM_at): 1.86
  FC Akr1b8 (1448894_PM_at): 17.57
  FC Akr1c12 (1450455_PM_s_at): 1.72
  FC Akr1c19 (1455454_PM_at): 3.20
  FC Blvrb (1451386_PM_at): 1.53
  FC Cbr3 (1427912_PM_at): 25.95
  FC Ces1e (1419510_PM_at): 2.70
  FC Ces1f (1424266_PM_s_at): 6.17
  FC Ces1g (1449486_PM_at): 7.40
  FC G6pd2 (1422327_PM_s_at): 1.74
  FC Gpx2 (1449279_PM_at): 1.67
  FC Gsr (1421816_PM_at): 2.20
  FC Gss (1441931_PM_x_at): 1.53
  FC Gsta2 (1421040_PM_a_at): 5.65
  FC Gsta2 (1421041_PM_s_at): 2.04
  FC Gsta3 (1423436_PM_at): 10.36
  FC Gsta3 (1423437_PM_at): 7.86
  FC Gstm1 (1425627_PM_x_at): 4.63
  FC Gstm1 (1448330_PM_at): 4.15
  FC Gstm3 (1427473_PM_at): 2.03
  FC Gstm3 (1427474_PM_s_at): 1.57
  FC Gstm4 (1424835_PM_at): 5.03
  FC Gstm6 (1422072_PM_a_at): 1.95
  FC Nqo1 (1423627_PM_at): 2.30
  FC Pir (1429001_PM_at): 3.79
  FC Setd4 (1425239_PM_at): 1.66
  FC Setd4 (1460373_PM_a_at): 1.52
  FC Slc5a4b (1422757_PM_at): 2.21
  FC Ugt2b5 (1419622_PM_at): 4.92
  FC Ugt2b35 (1439624_PM_at): 2.37
  FC Ugt2b36 (1455595_PM_at): 2.94
Jejunum
  Number of genes, DMF Only / MMF Only: 9
Jejunum, 2 hr
  Akr1c13 (1418672_PM_at) differential expression: 1.62
  Areg (1421134_PM_at) differential expression: 3.58
  B3galt5 (1428397_PM_at) differential expression: −2.77
  Cbr1 (1460196_PM_at) differential expression: 1.55
  Ces1e (1419510_PM_at) differential expression: 1.85
  Dnase2a (1430135_PM_at) differential expression: 1.77
  Dppa5a (1416552_PM_at) differential expression: 3.07
  Dusp4 (1428834_PM_at) differential expression: 1.51
  Entpd5 (1433763_PM_at) differential expression: 1.53
  Ereg (1419431_PM_at) differential expression: 2.50
  Ero1l (1419030_PM_at) differential expression: 1.92
  Esd (1441604_PM_at) differential expression: 1.71
  Fam13a (1456611_PM_at) differential expression: 1.54
  Gclc (1424296_PM_at) differential expression: 4.25
  Gsr (1421816_PM_at) differential expression: 2.23
  Gss (1441931_PM_x_at) differential expression: 1.95
  Gsta3 (1423436_PM_at) differential expression: 4.03
  Gsta4 (1416368_PM_at) differential expression: 1.72
  Gstm1 (1416416_PM_x_at) differential expression: 2.30
  Mafg (1448916_PM_at) differential expression: 2.20
  Nos2 (1420393_PM_at) differential expression: −2.39
  Nqo1 (1423627_PM_at) differential expression: 2.16
  Osgin1 (1424022_PM_at) differential expression: 2.08
  Pgm2 (1437240_PM_at) differential expression: 2.15
  Prss8 (1418320_PM_at) differential expression: 2.60
  Ptk6 (1442923_PM_at) differential expression: −2.42
  Setd4 (1435405_PM_at) differential expression: 1.91
  Slc35e3 (1428805_PM_at) differential expression: 1.53
  Slc40a1 (1417061_PM_at) differential expression: 2.33
  Srr (1453421_PM_at) differential expression: 1.99
  Srxn1 (1425351_PM_at) differential expression: 1.71
  Tifa (1426501_PM_a_at) differential expression: −2.43
  Tox3 (1436600_PM_at) differential expression: 1.70
  Tsku (1440230_PM_at) differential expression: 1.61
  Ugt2b5 (1419622_PM_at) differential expression: 3.40
  Ugt2b36 (1455595_PM_at) differential expression: 2.07
  Unc5c1 (1429950_PM_at) differential expression: −1.53
Jejunum, 7 hr
  Abcc3 (1428988_PM_at) differential expression: 1.88
  Acsm5 (1437662_PM_at) differential expression: 1.60
  Akr1c13 (1418672_PM_at) differential expression: 1.61
  Cbr1 (1460196_PM_at) differential expression: 1.65
  Ces1e (1419510_PM_at) differential expression: 2.10
  Ddc (1426215_PM_at) differential expression: 1.74
  G6pd2 /// G6pdx (1422327_PM_s_at) differential expression: 1.82
  G6pdx (1448354_PM_at) differential expression: 1.54
  Gclc (1424296_PM_at) differential expression: 2.06
  Gm3776 /// Gsta1 /// Gsta2 (1421041_PM_s_at) differential expression: 1.72
  Gsr (1421816_PM_at) differential expression: 2.83
  Gss (1441931_PM_x_at) differential expression: 1.97
  Gsta3 (1423436_PM_at) differential expression: 4.27
  Gsta4 (1416368_PM_at) differential expression: 2.09
  Gstm1 (1416416_PM_x_at) differential expression: 3.19
  Gstm2 (1416411_PM_at) differential expression: 1.58
  Gstm4 (1424835_PM_at) differential expression: 3.83
  Gstm6 (1422072_PM_a_at) differential expression: 1.94
  Htatip2 (1451814_PM_a_at) differential expression: 1.51
  Nqo1 (1423627_PM_at) differential expression: 2.31
  Pir (1429001_PM_at) differential expression: 3.79
  Setd4 (1435405_PM_at) differential expression: 1.90
  Slc5a4b (1422757_PM_at) differential expression: 1.67
  Txnrd1 (1424487_PM_x_at) differential expression: 1.60
  Ugt2b5 (1419622_PM_at) differential expression: 3.42
  Ugt2b36 (1455595_PM_at) differential expression: 2.23
Jejunum, 12 hr
  Abcc3 (1428988_PM_at) differential expression: 2.02
  Acsm5 (1437662_PM_at) differential expression: 1.86
  Akr1c12 /// Akr1c13 (1450455_PM_s_at) differential expression: 1.72
  Aldh1a7 (1418601_PM_at) differential expression: 1.65
  Blvrb (1451386_PM_at) differential expression: 1.53
  Ces1e (1419510_PM_at) differential expression: 2.70
  G6pd2 /// G6pdx (1422327_PM_s_at) differential expression: 1.74
  Gm3776 /// Gsta1 /// Gsta2 (1421041_PM_s_at) differential expression: 2.04
  Gpx2 (1449279_PM_at) differential expression: 1.67
  Gsr (1421816_PM_at) differential expression: 2.20
  Gss (1441931_PM_x_at) differential expression: 1.53
  Gsta3 (1423436_PM_at) differential expression: 10.36
  Gsta4 (1416368_PM_at) differential expression: 2.58
  Gstm1 (1416416_PM_x_at) differential expression: 4.15
  Gstm2 (1416411_PM_at) differential expression: 2.04
  Gstm4 (1424835_PM_at) differential expression: 5.03
  Gstm6 (1422072_PM_a_at) differential expression: 1.95
  Nqo1 (1423627_PM_at) differential expression: 2.30
